# Test results from US5428048A, “Aryl-N-hydroxyureas as inhibitors of 5-lipoxygenase and anto-arteriosclerotic agents” (American Home Products Corporation, priority 1993, dated 1995).
# How the values were obtained:
# Lipoxygenase = experiment: Ex-Vivo Measurement of Lipoxygenase Inhibition in Orally Dosed Rats (LTB4 in A23187-stimulated blood); design: species or system Male Sprague Dawley rats; settings: ex vivo rat, p.o., dose 10 (mg/kg), pretreatment 3 hr
# Procedure: 2. […] After an interval of 3 or 6 hours, the rats were anesthetized with metofane (n =4/group) and blood collected in heparinized tubes. White blood cell counts and differentials were made. One ml of blood from each animal was placed in a 5 ml plastic tube in a shaker bath at 37° C. A23187 at a final concentration of 10 μM was added to the blood and the blood vortexed and incubated for 15 min at 37° C. with gentle shaking. Incubation was terminated by vortexing sample and centrifuging immediately at 1200 xG for 15 min at 4° C. The plasma was transferred to 15 ml plastic tubes each containing 8 ml of methanol to precipitate protein followed by vortexing. The samples were stored at -70° C. overnight and the next day the samples were centrifuged at 800 xG for 15 min to pellet the precipitate. The samples were dried in a Savant SpeedVac Concentrator Model SVC 200H and reconstituted to the original volume with cold RIA or ELISA buffer. The reconstituted samples were stored at -70° C. until assayed. The assay for LTB4 was perforated according to the directions of the [^3 H]RIA kit or ELISA kit (Seragen). The total metabolite level in 1 ml of blood is calculated and reported as ng/10^6 neutrophils. Significance is determined by a one-way analysis of variance with LSD comparisons to control (p<0.05).
# LTB4 Synthesis = experiment: Reverse Passive Arthus Reaction (pleurisy, LTB4 in pleural exudate); type: in vivo, male Lewis rats; settings: 25 mg/kg p.o.
# Procedure: 3. Reverse Passive Arthus Reaction
# A reverse passive Arthus reaction is induced in the pleural cavity of male Lewis rats (150°-200 g; fasted overnight prior to use) by the intravenous administration of bovine serum albumin (BSA; 4 mg/0.2 ml) followed 30 minutes later by the injection of rabbit anti-BSA (1 mg/0.2 ml; lyophilized IgG fraction; Organon Teknika, West Chester, Pa.) into the right pleural space under halothane anesthesia. Drugs or vehicle (0.5% Tween-80) control are administered orally in a volume of 1 ml/100 g body weight at 1 hour prior to the anti-BSA. Animals are sacrificed at either the time of peak eicosanoid production (i.e. 5 minutes after anti-BSA for immunoreactive TxB2, 10 minutes for immunoreactive LTB4, 20 minutes for immunoreactive LTC4) or at the time of peak neutrophil infiltration (4 hours after anti-BSA) by CO2 inhalation. The pleural cavity is then exposed, the fluid exudate removed by gentle vacuum aspiration and the volume of exudate is recorded. For the determination of cellular infiltration, the pleural cavity is rinsed with 3 ml of 0.1% EDTA in sterile saline, and the recovered wash is pooled with the exudate. Cell number is determined on a model ZBI Coulter counter. For determination of eicosanoid production, undiluted pleural exudate is microfuged and the supernatant is extracted with ethanol (8-10 times volume). Extracts are either stored at -20° C., or are evaporated to dryness under a stream of N2 and reconstituted in radioimmunoassay (RIA) buffer.
# Eicosanoids are quantitated by RIA according to the procedure specified by the RIA kit manufacturer (Advanced Magnetics, Cambridge, MA). Briefly, 100 μl of ^3 H-labeled eicosanoid and 100 μl of specific antibody ,are sequentially added to 100 μl of extracted pleural exudate in BGG-phosphate buffer which contains 0.01M phosphate, 0.1% bovine gamma globulin and 0.1% sodium azide at pH 7.0. Antibody-bound eicosanoid is separated from unbound eicosanoid by the addition of 750 μl of dextran (0.4%)-coated charcoal (Norit A) containing 0.1% sodium azide. The mixture is centrifuged at 2000 RPM at 5° C. for 15 minutes to pellet the charcoal and adsorbed unbound eicosanoid. Antibody-bound labeled eicosanoid is quantitated by counting in a liquid scintillation counter, and is correlated to concentration by a standard curve.
# 5-Lipoxygenase = biological target: T1, 5-Lipoxygenase (Homo sapiens, UniProt P09917); experiment: Inhibition of 5-Lipoxygenase in Human Whole Blood (ionophore A23187-stimulated LTB4); type: cell-based
# T1 construct: endogenous in cells; host or cells: whole blood of male human donors (results per 10^6 neutrophils)
# T1 sequence (P09917 1-674): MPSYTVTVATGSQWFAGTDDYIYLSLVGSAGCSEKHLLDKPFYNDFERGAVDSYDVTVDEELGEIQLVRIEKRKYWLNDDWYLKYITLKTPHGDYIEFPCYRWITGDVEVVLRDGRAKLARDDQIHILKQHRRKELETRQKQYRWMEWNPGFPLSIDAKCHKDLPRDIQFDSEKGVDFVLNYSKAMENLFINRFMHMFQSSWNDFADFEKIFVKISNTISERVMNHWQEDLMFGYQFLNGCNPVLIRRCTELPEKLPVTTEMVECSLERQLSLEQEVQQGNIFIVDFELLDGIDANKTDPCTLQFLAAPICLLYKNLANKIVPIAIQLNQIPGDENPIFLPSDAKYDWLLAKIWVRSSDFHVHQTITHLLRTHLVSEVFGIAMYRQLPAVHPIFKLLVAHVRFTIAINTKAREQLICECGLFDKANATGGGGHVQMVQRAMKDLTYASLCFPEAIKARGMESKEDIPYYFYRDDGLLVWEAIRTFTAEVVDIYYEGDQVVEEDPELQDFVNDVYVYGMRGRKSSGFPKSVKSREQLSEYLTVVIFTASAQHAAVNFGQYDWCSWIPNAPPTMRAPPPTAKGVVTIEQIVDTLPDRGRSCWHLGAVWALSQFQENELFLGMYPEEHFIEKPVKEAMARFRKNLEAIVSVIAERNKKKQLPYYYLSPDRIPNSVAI
# Procedure: 1. Inhibition of 5-Lipoxygenase in Human Whole Blood
# Blood is obtained in 50-100 ml quantities from male donors. White blood cell counts and differentials are made. Two ml of blood are placed in a 15 ml polypropylene test tube. Test compounds are solubilized in dimethylsulfoxide and diluted in 1:10 in 10% bovine serum albumin in phosphate buffered saline, pH 7.4 resulting in a final dimethylsulfoxide concentration of 0.1% in the blood. Then, solutions of test compounds are added to the blood in a shaking water bath at 37° C. for 10 minutes prior to the addition of 30 μM calcium ionophore (A23187, Sigma). After ionophore administration, whole blood samples are mixed and incubated for 20 minutes at 37° C. in a shaking water bath. Incubation is terminated by placing samples in an ice bath and immediately adding ethylene glycol-bis-(β-aminoethyl ether)-N, N,N',N'-tetraacetic acid (10 mM). Samples are mixed and centrifuged at 1200×g for 15 minutes at […]. Preparation of samples for evaluation by RIA or ELISA is carded out by the following protocol. Plasma is removed from sample tubes, placed in 15 ml polypropylene test tubes containing 8 ml methanol, and then vortexed to precipitate protein. Samples are stored at -70° C. overnight. The next day, samples are centrifuged at 200×g for 15 minutes at 4° C. to pellet the precipitate. Samples are dried in a Savant SpeedVac Concentrator, Model SVC 200H, reconstituted to original volume with ice cold RIA or ELISA buffer, and stored at -70° C. until assayed. The assay for eicosanoids (LTB4, TxB2, and PGE2) is performed as described by the manufacturer of the [^3 H]-RIA kit or ELISA kit (LTB4 -Amersham, TxB2 and PGE2 - Caymen Chemical).
# The total eicosanoid level in 2 ml of blood is calculated and reported as ng/10^6 neutrophils. Significance is determined by a one-way analysis of variance with least significant difference (LSD) comparisons to control (p≤0.05) and IC50 's (μM) are determined by regression analysis (Finney, 1978). Drug effects are expressed as percent change from control values.
# Low Density Lipoprotein = experiment: Inhibition of Copper Ion Mediated Oxidation of Low Density Lipoprotein; type: biochemical; settings: Cu+2 mediated oxidation of rabbit or monkey LDL, 37° C., 90 minutes, 532 nm
# Procedure: 5. Inhibition of Copper Ion Mediated Oxidation of Low Density Lipoprotein
# In this in vitro assay, the inhibition of Cu^+2 mediated oxidation of rabbit or monkey LDL by an invention compound is determined spectrophotometricallly. Oxidation of LDL results in the formation of LDL-diene which absorbs light at 532 nm. Inhibition of oxidation of LDL leads to a decrease in absorbance at 532 nm.
# Rabbit or monkey LDL is prepared according to the procedures of Havel, Eder and Gragdon, "The Distribution and Chemical Composition of Ultracentrifugally Separated Lipoproteins in Human Serum,: J. Clin. Invest. 34, 1345-1353 (1955) and Parhtasarathy, Wieland and Steriberg, "A Role for Endothelial Cell Lipoxygenase in the Oxidative Modification of Low Density Lipoprotein," Proc. Natl. Acad. Sci. USA 86, 1046-1050 (1989). Test compound solutions are prepared by dissolving the invention compounds in ethanol at concentrations up to 248 μM. The medium used is Dulbecco's phosphate buffered saline containing 0.5 mg/ml bovine serum albumin. For standards, 0 to 10 μl of an aqueous solution of 1,1,3,3-tetraethoxypropane (1 μmol/ml H2 O) in 4.1 ml of medium is used.
# Test compound solution ([…]) is added to 4 ml of medium in incubation tubes. To each tube is added 10 μl of LDL solution and 25 μl of aqueous copper sulfate solution (1.32 mg/ml H2 O). The tubes are incubated at 37° C. for 90 minutes and the oxidation reaction quenched by addition of 1 ml of thiobarbituric acid solution (0.67% in 50% acetic acid). The tubes are heated at 90° C. for 1 hour, then chilled in an ice bath and the chromophore extracted into 2 ml of n-butanol. Absorbence is read at 532 nm and the results are reported as nmols of malondialdehyde equivalents.
# Significant differences (p<0.05) are determined by the Dunnett T-test or by the Student-Newman-Keuls Test for significant differences between means. The assay is conducted using several concentrations [I] of the inhibitor test compounds. The LDL solution concentrations at different experiments were either 1.5 mg/ml, 2.5 mg/ml or 10.3 mg/ml. The IC50 is determined by non-linear regression, plotting log [I] vs. % inhibition. (Reference: K. Yagi, Biochemical Medicine 15,212-216 (1976)).
# [1] = test system: LT-dependent bronchoconstriction; experiment: Inhibition of Bronchoconstriction in Guinea Pigs Induced by Exogenously Administered Antigen; type: in vivo, Male guinea pigs; settings: 10 mg/kg i.v.
# Procedure: 4. Inhibition of Brochoconstriction in Guinea Pigs Induced by Exogenously Administered Antigen
# Male guinea pigs (Charles River, Wilmington, Mass.) were sensitized 3-4 weeks prior to antigen challenge by administration of 2 i.m. injections of ovalbumin, 1 into each hind limb (35 mg total). Sensitized animals (500-600 g) were fasted overnight prior to experimentation. Conscious animals were then dosed p.o. with drug or vehicle alone (0.5% Tween 80 in H2 O) at the indicated times prior to antigen challenge, or anesthetized animals were dosed i.v. with drug or vehicle alone (DMSO) 5 min prior to antigen challenge. Animals were anesthetized by urethane (2.8 g/kg i.p.). A carotid artery and jugular vein were cannulated to allow for the monitoring of blood pressure and the administration of drugs, respectively. The trachea was then cannulated and connected to a Harvard Apparatus rodent ventilator (S. Natick, Mass.). Spontaneous respiration was abolished by the administration of succinylcholine (2.5 mg/kg i.v.). The animals were then ventilated with room air at a rate of 65 breaths per min. Airway inflation pressure was measured using a Statham pressure transducer (Gould Instruments, Cleveland, Ohio) connected to the tracheal cannula via a side-arm and recorded on a Grass Instruments recorder (Quincy, Mass.). The tidal volume (approximately 10 cc/kg) was adjusted to give a baseline inflation pressure of 8-10 cm H2 O at end inspiration. Animals were then allowed 20 min to stabilize.
# Following the stabilization period, animals were given i.v. injections of pyrilamine (5 mg/kg), propranolol (0.1 mg/kg) and indomethacin (10 mg/kg) at 15, 10 and 5 min, respectively, prior to antigen challenge. This pretreatment results in an LT-dependent bronchoconstriction following antigert challenge, which was accomplished by i.v. administration of ovalbumin (10 mg/kg). Only one bronchoconstriction per animal was induced. End-inspiratory inflation pressure (in cm H2 O over baseline) was measured at 5 min post-antigen challenge. A mean value and standard error for the % inhibition of control bronchoconstriction in each drug-treated group was then calculated.
# atherosclerotic lesions = settings: WHHL rabbits, in words; cited from earlier work
# LDL [2] = settings: in words; cited from earlier work
# LDL [3] = settings: in words; cited from earlier work; remark: listed apart in the source
inhibition at 1 µM (5-Lipoxygenase),Structure (SMILES),% Inhibition of LTB4 (Lipoxygenase),% Inhibition LTB4 Synthesis (LTB4 Synthesis),further results
63%,Cc1oc(-c2cccc(F)c2)nc1CCOc1ccc(CN(O)C(N)=O)cc1 [Example 7],79%,38%,
71%,"Cc1oc(-c2ccccc2)nc1CCOc1ccc(CN(O)C(N)=O)cc1F [Example 12, 1-[3-Fluoro-4-[2-(5-methyl-2-phenyl-oxazol-4-yl)-ethoxy]-benzyl]-1-hydroxy-urea]",52%,58%,

# The next lines start with the compound.
Structure (SMILES),inhibition at 1 µM (5-Lipoxygenase),% Inhibition of LTB4 (Lipoxygenase),% Inhibition LTB4 Synthesis (LTB4 Synthesis),further results
Cc1oc(-c2cc(C(C)(C)C)c(O)c(C(C)(C)C)c2)nc1CCOc1ccc(CN(O)C(N)=O)cc1 [Example 10],,44%,,IC50 (Low Density Lipoprotein): 180 nM; inhibition at 10 µM (5-Lipoxygenase; 10 μM): 83%
"NC(=O)N(O)Cc1ccc(OCCc2csc(-c3ccc(C(F)(F)F)cc3)n2)cc1 [Example 19, 1-Hydroxy-1-[4-[2-[2-(4-trifluoromethyl-phenyl)-thiazol-4-yl]-ethoxy]-benzyl]-urea]",57%,,,Bronchoconstriction % Inhibition [1]: 21%
CC(C)(Sc1cc(C(C)(C)C)c(O)c(C(C)(C)C)c1)Sc1cc(C(C)(C)C)c(O)c(C(C)(C)C)c1 [Probucol],,,,inhibition of formation of atherosclerotic lesions (atherosclerotic lesions): shown to inhibit the formation of atherosclerotic lesions in WHHL rabbits; inhibition of Cu+2 mediated oxidative modification of LDL (LDL [2]): inhibits both cell mediated and Cu^+2 mediated oxidative modification of LDL; inhibition of cell mediated oxidative modification of LDL (LDL [3]): inhibits both cell mediated and Cu^+2 mediated oxidative modification of LDL
